Experiments:
[1] = target: T1, Syn19 PstS (group II cyanophage PstS) (Synechococcus phage Syn19, UniProt E3SQC4); assay type: binding; conditions: crystallised with 5 mM sodium phosphate, pH 7.5; 18% PEG 3350, 0.2 M sodium formate
T1 construct: recombinant, E. coli BL21(DE3), pET-22b, C-terminal His6 tag

[2] = target: phage PstS (cyanophage P-SSM2 PstS) (Prochlorococcus phage P-SSM2, UniProt Q58MA7); assay: biochemical
[3] = target: T2, host PstS (Prochlorococcus NATL2A PstS) (Prochlorococcus marinus, UniProt Q46KP5); conditions: 20 mM Tris-HCl, 200 mM NaCl, pH 7.5, room temperature, 24 h; trace 32P tracer with cold NaH2PO4
T2 construct: gene PMN2A_0441
T2 sequence (Q46KP5 25-323): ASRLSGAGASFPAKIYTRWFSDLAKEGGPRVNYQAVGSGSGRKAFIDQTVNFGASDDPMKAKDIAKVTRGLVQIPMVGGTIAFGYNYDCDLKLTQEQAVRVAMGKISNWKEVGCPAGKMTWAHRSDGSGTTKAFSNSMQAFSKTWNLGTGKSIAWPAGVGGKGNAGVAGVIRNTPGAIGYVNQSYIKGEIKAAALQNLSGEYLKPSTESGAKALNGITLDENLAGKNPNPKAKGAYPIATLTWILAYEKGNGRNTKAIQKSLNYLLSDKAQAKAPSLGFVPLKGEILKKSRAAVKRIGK

T1 sequence (E3SQC4 19-326): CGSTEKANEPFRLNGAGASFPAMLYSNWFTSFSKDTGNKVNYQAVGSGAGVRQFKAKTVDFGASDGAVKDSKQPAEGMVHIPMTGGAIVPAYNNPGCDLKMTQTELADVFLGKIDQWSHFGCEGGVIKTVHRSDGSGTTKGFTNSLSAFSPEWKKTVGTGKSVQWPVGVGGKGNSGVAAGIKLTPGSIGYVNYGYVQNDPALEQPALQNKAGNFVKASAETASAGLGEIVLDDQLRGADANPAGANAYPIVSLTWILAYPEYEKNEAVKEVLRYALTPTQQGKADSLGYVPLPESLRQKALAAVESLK
phage PstS (cyanophage P-SSM2 PstS), sequence (Q58MA7 21-321): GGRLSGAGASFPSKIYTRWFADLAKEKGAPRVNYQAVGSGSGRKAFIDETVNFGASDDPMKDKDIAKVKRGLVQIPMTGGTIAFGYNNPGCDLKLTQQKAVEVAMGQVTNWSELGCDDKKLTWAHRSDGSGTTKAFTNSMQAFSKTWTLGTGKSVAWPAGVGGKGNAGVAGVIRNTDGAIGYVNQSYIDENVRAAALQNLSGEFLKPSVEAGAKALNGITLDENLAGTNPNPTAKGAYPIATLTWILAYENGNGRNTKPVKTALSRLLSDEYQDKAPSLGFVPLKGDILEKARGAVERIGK

Kd [2]: 1390 ± 220 nM | Kd [3]: 820 ± 440 nM
SMILES: O=P(O)(O)O [phosphate]
X-ray crystal structure, 1.70 Å [1]: The PstS structure of cyanophage Syn19 in complex with PO4.

Reference: paper doi:10.1101/2021.07.20.453049v1, “Integration of the cyanophage-encoded phosphate binding protein into the cyanobacterial phosphate uptake system” (biorxiv, 2021)
